{
  "source": "paper PMC9613470",
  "about": "“Diverse MarR bacterial regulators of auxin catabolism in the plant microbiome” (Nature Microbiology, 2022)",
  "key": {"[1]": {"target": "Bradyrhizobium japonicum MarR_Bj2", "assay": "ITC IAA binding to MarR_Bj2", "settings": "25 °C, IadR2 (MarR_50-like)", "description": "(§1) The coding sequence for each gene can be found in Supplementary Table 10. MarR expression plasmids were synthesized as codon-optimized genes for E. coli expression by BioBasic in the pLIC-His N-term vector (pMCSG7) and transformed into E. coli BL21 (DE3) Gold cells for expression. […] At an OD600 of 0.8, protein expression was induced by the addition of 0.1 mM IPTG and incubation continued overnight. Cells were collected by centrifugation at 4,500 × g for 20 min at 4 °C in a Sorvall (model RC-3B) swinging bucket centrifuge. Cell pellets were resuspended in buffer A (20 mM potassium phosphate, pH 7.4, 50 mM imidazole, 500 mM NaCl), DNase, lysozyme and a Roche Complete EDTA-free protease inhibitor tablet. Resuspended cells were sonicated and clarified via centrifugation at 17,000 × g for 60 min in a Sorvall (model RC-5B) swinging bucket centrifuge. The lysate was applied to a nickel-nitrilotriacetic acid HP column (GE Healthcare) on an Aktaxpress Fast Performance Liquid Chromatography (FPLC) system (Amersham Bioscience) and washed with buffer A. Protein was eluted with buffer B (20 mM potassium phosphate, pH 7.4, 500 mM imidazole, 500 mM NaCl). Fractions containing the protein of interest were combined and passed over a HiLoadTM 16/60 SuperdexTM 200 gel filtration column. Proteins were eluted in S200 buffer (20 mM HEPES, pH 7.4, 300 mM NaCl). […]"}, "[2]": {"target": "Acinetobacter baumannii MarR_Ab (Acinetobacter baumannii, UniProt A0ABX6CGA9)", "assay": "ITC IAA binding to MarR_Ab", "description": "as §1"}, "[3]": {"target": "Pseudomonas putida 1290 MarR_iacR (Pseudomonas putida, UniProt B0FXI7)", "sequence (B0FXI7 whole entry)": "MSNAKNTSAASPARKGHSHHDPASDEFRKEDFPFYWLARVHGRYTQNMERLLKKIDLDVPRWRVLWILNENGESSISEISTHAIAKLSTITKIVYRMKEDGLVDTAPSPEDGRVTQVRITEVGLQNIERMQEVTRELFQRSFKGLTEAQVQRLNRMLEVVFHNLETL", "assay": "ITC IAA binding to MarR_iacR", "settings": "25 °C, IacR", "description": "as §1"}, "MarR_73 S28A R46A": {"target": "MarR_73 S28A R46A (Variovorax paradoxus, UniProt C5CSP2, R46A/S28A)", "sequence (C5CSP2 1-158, stated change not applied)": "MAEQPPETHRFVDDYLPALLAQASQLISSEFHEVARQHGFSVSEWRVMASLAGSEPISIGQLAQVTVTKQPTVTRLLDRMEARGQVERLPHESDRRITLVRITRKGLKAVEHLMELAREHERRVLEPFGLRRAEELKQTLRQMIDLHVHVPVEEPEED", "settings": "ITC, 25 °C; mutant S28A R46A", "description": "as §1"}, "IAA degradation locus": {"test_system": "IAA degradation locus", "assay": "RNA-seq of V. paradoxus CL14 strains with and without IAA", "format": "cell-based, Variovorax paradoxus CL14", "settings": "Fig 2 f; for CL14wt_IAA (RNA-seq expression value): CL14 wild type with IAA; for d50_IAA (RNA-seq expression value): ΔMarR_50 with IAA; for d73_IAA (RNA-seq expression value): ΔMarR_73 with IAA; for diadDE_IAA (RNA-seq expression value): ΔiadDE with IAA", "description": "V. paradoxus CL14 was grown in 5 ml cultures of M9 minimal medium supplemented with 15 mM succinate and 0.5% (v/v) ethanol alone or containing IAA. IAA was at a final concentration of 0.1 mg ml^−1 in the medium to which it was added. Cultures were prepared at a starting OD600 of 0.02 and incubated at 28 °C, shaking at 250 r.p.m. Cells from all samples were collected for RNA-seq at 18 h to ensure IAA was still present in the cultures of strains that degraded IAA most rapidly. Cells were pelleted by centrifuging the culture at 4,200 × g for 15 min and removing the supernatant. Cell pellets were frozen at −80 °C before RNA extraction. To extract RNA, cells were lysed in TRIzol reagent (Invitrogen) according to manufacturer instructions for lysis and phase separation. After these steps, RNA was purified from the aqueous phase using the RNeasy mini kit (Qiagen) including the optional on-column DNase digestion with RNase-free DNase set (Qiagen). Total RNA was quantified using the Qubit 2.0 fluorometer (Invitrogen) and RNA-seq libraries were prepared using the Universal Prokaryotic RNA-Seq Prokaryotic AnyDeplete kit (Tecan) according to manufacturer instructions. The resulting libraries were pooled and sequenced on the Illumina HiSeq4000 to generate 50 bp single-end reads.\nThe V. paradoxus CL14 RNA-seq sequence data were analysed as described previously. Briefly, the raw reads were mapped to the V. paradoxus CL14 genome (fasta file available at https://github.com/isaisg/variovoraxRGI/blob/master/rawdata/2643221508.fna) using bowtie2[53] with the ‘very sensitive’ flag. Hits to each individual coding sequence were counted and annotated using the function featureCounts from the R package Rsubread[54], inputting the V. paradoxus CL14 gff file (available at https://github.com/isaisg/variovoraxRGI/blob/master/rawdata/2643221508.gff) and using the default parameters with the flag allowMultiOverlap = FALSE. Finally, DESeq2[55] was used to estimate Differentially Expressed Genes (DEGs) between treatments, with the corresponding fold-change estimates and False Discovery Rate (FDR) adjusted P values. For visualization purposes, we performed z-score standardization of each gene across samples and we visualized this standardized expression values utilizing a heat map constructed using ggplot2[56]."}},
  "note": "Entries after “also recorded” stand apart in the source; their conditions may differ.",
  "data": [
    {"smiles": "O=C(O)Cc1c[nH]c2ccccc12", "note": "[IAA, indole-3-acetic acid]", "values": [
      {"measurement": "KD1", "setting": "[1]", "value": "did not bind; also recorded: No Binding"},
      {"measurement": "Kd", "setting": "[2]", "value": "1.29 ± 0.101", "unit": "µM"},
      {"measurement": "N1", "setting": "[2]; ITC, 25 °C, IacR", "value": "0.911 ± 0.011"},
      {"measurement": "N1", "setting": "[3]", "value": "0.590± 0.032"},
      {"measurement": "Kd", "setting": "[3]; read-out: KD1", "value": "4.45 ± 0.196", "unit": "µM"},
      {"measurement": "N", "setting": "MarR_73 S28A R46A", "value": "1.2 ± 0.2"},
      {"measurement": "CL14wt_IAA (RNA-seq expression value)", "setting": "IAA degradation locus; Gene 2643611541", "value": -0.7473},
      {"measurement": "d50_IAA (RNA-seq expression value)", "setting": "IAA degradation locus; Gene 2643611541", "value": 0.6042},
      {"measurement": "d73_IAA (RNA-seq expression value)", "setting": "IAA degradation locus; Gene 2643611541", "value": 0.2688},
      {"measurement": "diadDE_IAA (RNA-seq expression value)", "setting": "IAA degradation locus; Gene 2643611541", "value": 0.4986},
      {"measurement": "CL14wt_IAA (RNA-seq expression value)", "setting": "IAA degradation locus; Gene 2643611542", "value": -0.07617},
      {"measurement": "d50_IAA (RNA-seq expression value)", "setting": "IAA degradation locus; Gene 2643611542", "value": 0.09619},
      {"measurement": "d73_IAA (RNA-seq expression value)", "setting": "IAA degradation locus; Gene 2643611542", "value": 0.02449},
      {"measurement": "diadDE_IAA (RNA-seq expression value)", "setting": "IAA degradation locus; Gene 2643611542", "value": 0.1314},
      {"measurement": "CL14wt_IAA (RNA-seq expression value)", "setting": "IAA degradation locus; Gene 2643611543", "value": -0.001618},
      {"measurement": "d50_IAA (RNA-seq expression value)", "setting": "IAA degradation locus; Gene 2643611543", "value": 0.2002},
      {"measurement": "d73_IAA (RNA-seq expression value)", "setting": "IAA degradation locus; Gene 2643611543", "value": 0.2405},
      {"measurement": "diadDE_IAA (RNA-seq expression value)", "setting": "IAA degradation locus; Gene 2643611543", "value": 0.0895},
      {"measurement": "CL14wt_IAA (RNA-seq expression value)", "setting": "IAA degradation locus; Gene 2643611544", "value": -1.408},
      {"measurement": "d50_IAA (RNA-seq expression value)", "setting": "IAA degradation locus; Gene 2643611544", "value": -0.115},
      {"measurement": "d73_IAA (RNA-seq expression value)", "setting": "IAA degradation locus; Gene 2643611544", "value": 0.2327},
      {"measurement": "diadDE_IAA (RNA-seq expression value)", "setting": "IAA degradation locus; Gene 2643611544", "value": 0.2436},
      {"measurement": "CL14wt_IAA (RNA-seq expression value)", "setting": "IAA degradation locus; Gene 2643611545", "value": -0.03496},
      {"measurement": "d50_IAA (RNA-seq expression value)", "setting": "IAA degradation locus; Gene 2643611545", "value": 0.09136},
      {"measurement": "d73_IAA (RNA-seq expression value)", "setting": "IAA degradation locus; Gene 2643611545", "value": -0.02991},
      {"measurement": "diadDE_IAA (RNA-seq expression value)", "setting": "IAA degradation locus; Gene 2643611545", "value": 0.001153}
    ]}
  ]
}
